Measured values taken from US10765114B2, “4-amino-6-(pyridyl and 2-substitutedphenyl)-picolinates and 6-amino-2-(pyridyl and 2-substitutedphenyl)-pyrimidine-4-carboxylates and their use as herbicides” (Dow AgroSciences LLC, priority 2013, dated 2020).
Read-outs that look alike come from different tables or passages of the source.

Experiments:
[1] = tested on: Key Grass and Sedge Weeds as well as Grass Crops; experiment: Post-Emergent Test II (Table 6); assay type: in vivo; conditions: post-emergence, 336 h, 14 days after application; for pest or weed control at 70 g/ha: 70 g ai/ha; for pest or weed control at 140 g/ha: 140 g ai/ha
Method in brief: (§1)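 Plants grown in a greenhouse (~15 h photoperiod, 23-29° C day) to first or second true leaf stage were sprayed post-emergence at 187 L/ha with compound in acetone/DMSO-based aqueous spray containing crop oil concentrate and surfactant, applied at a high rate plus ½× to 1/16× serial rates. Injury was scored visually 14 days later, 0-100% versus untreated plants.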

[2] = tested on: Key Broadleaf Weed and Crop Species; experiment: Post-Emergent Test II (Table 5); assay type: in vivo; conditions: post-emergence, 336 h; for pest or weed control at 70 g/ha: application rate 70 (kg ai/ha; footnote: g ai/ha); for pest or weed control at 140 g/ha: application rate 140 (kg ai/ha; footnote: g ai/ha)
Method in brief: as §1

[3] = CYPSS, read-out: Visual Growth Reduction (%) 14 Days After Application CYPSS
[4] = DIGSA: crabgrass (Digitaria sanguinalis), read-out: Visual Growth Reduction (%) 14 Days After Application DIGSA
[5] = ECHSS, read-out: Visual Growth Reduction (%) 14 Days After Application ECHSS
[6] = ORYSS (crop), read-out: Visual Growth Reduction (%) 14 Days After Application ORYSS
[7] = SETFA: giant foxtail (Setaria faberi), read-out: Visual Growth Reduction (%) 14 Days After Application SETFA
[8] = SORVU: grain sorghum (Sorghum vulgare), read-out: Visual Growth Reduction (%) 14 Days After Application SORVU
[9] = TRZSS (crop), read-out: Visual Growth Reduction (%) 14 Days After Application TRZSS
[10] = ZEAMX: maize, corn (Zea mays), read-out: Visual Growth Reduction (%) 14 Days After Application ZEAMX
[11] = Abutilon theophrasti, ABUTH: velvetleaf (Abutilon theophrasti), read-out: Visual Growth Reduction (%) 14 Days After Application ABUTH
[12] = Amaranthus retroflexus, AMARE: redroot pigweed (Amaranthus retroflexus), read-out: Visual Growth Reduction (%) 14 Days After Application AMARE
[13] = Brassica napus, BRSSS: oilseed rape, canola (Brassica napus), read-out: Visual Growth Reduction (%) 14 Days After Application BRSSS
[14] = Chenopodium album, CHEAL: lambsquarters (Chenopodium album), read-out: Visual Growth Reduction (%) 14 Days After Application CHEAL
[15] = Euphorbia heterophylla, EPHHL: wild poinsettia (Euphorbia heterophylla), read-out: Visual Growth Reduction (%) 14 Days After Application EPHHL
[16] = Helianthus annuus, HELAN: sunflower (Helianthus annuus), read-out: Visual Growth Reduction (%) 14 Days After Application HELAN
[17] = Viola tricolor, VIOTR: wild pansy (Viola tricolor), read-out: Visual Growth Reduction (%) 14 Days After Application VIOTR

C#Cc1c(-c2cc(N)c(Cl)c(C(=O)OC)n2)ccc(Cl)c1F [Compound 75, methyl 4-amino-3-chloro-6-(4-chloro-2-ethynyl-3-fluorophenyl)picolinate]
0 to 29%: pest or weed control at 70 g/ha [1, 3] | pest or weed control at 140 g/ha [1, 3] | pest or weed control at 70 g/ha [1, 4] | pest or weed control at 140 g/ha [1, 4] | pest or weed control at 70 g/ha [1, 5] | pest or weed control at 140 g/ha [1, 5] | pest or weed control at 70 g/ha [1, 6] | pest or weed control at 140 g/ha [1, 6] | pest or weed control at 70 g/ha [1, 7] | pest or weed control at 140 g/ha [1, 7] | pest or weed control at 70 g/ha [1, 8] | pest or weed control at 140 g/ha [1, 8] | pest or weed control at 70 g/ha [1, 9] | pest or weed control at 140 g/ha [1, 9] | pest or weed control at 70 g/ha [1, 10] | pest or weed control at 140 g/ha [1, 10] | pest or weed control at 70 g/ha [2, 11] | pest or weed control at 140 g/ha [2, 11] | pest or weed control at 70 g/ha [2, 12] | pest or weed control at 140 g/ha [2, 12] | pest or weed control at 70 g/ha [2, 13] | pest or weed control at 140 g/ha [2, 13] | pest or weed control at 70 g/ha [2, 15] | pest or weed control at 140 g/ha [2, 15] | pest or weed control at 70 g/ha [2, 16] | pest or weed control at 140 g/ha [2, 16] | pest or weed control at 70 g/ha [2, 17] | pest or weed control at 140 g/ha [2, 17]
75 to 84%: pest or weed control at 70 g/ha [2, 14] | pest or weed control at 140 g/ha [2, 14]

Nc1cc(-c2ccc(Cl)c(Cl)c2Cl)nc(C(=O)O)c1Cl [Compound 93]
0 to 29%: pest or weed control at 70 g/ha [1, 3] | pest or weed control at 140 g/ha [1, 3] | pest or weed control at 70 g/ha [1, 6] | pest or weed control at 140 g/ha [1, 6] | pest or weed control at 70 g/ha [1, 7] | pest or weed control at 140 g/ha [1, 7] | pest or weed control at 70 g/ha [1, 8] | pest or weed control at 140 g/ha [1, 8] | pest or weed control at 140 g/ha [2, 17]
75 to 84%: pest or weed control at 140 g/ha [2, 16]
45 to 59%: pest or weed control at 70 g/ha [1, 9]
30 to 44%: pest or weed control at 70 g/ha [1, 5] | pest or weed control at 140 g/ha [1, 5] | pest or weed control at 70 g/ha [1, 10] | pest or weed control at 140 g/ha [1, 10]
95 to 100%: pest or weed control at 70 g/ha [2, 12] | pest or weed control at 140 g/ha [2, 12] | pest or weed control at 70 g/ha [2, 13] | pest or weed control at 140 g/ha [2, 13] | pest or weed control at 140 g/ha [2, 14] | pest or weed control at 70 g/ha [2, 15] | pest or weed control at 140 g/ha [2, 15]
85 to 94%: pest or weed control at 70 g/ha [2, 11] | pest or weed control at 140 g/ha [2, 11] | pest or weed control at 70 g/ha [2, 14]
60 to 74%: pest or weed control at 70 g/ha [1, 4] | pest or weed control at 140 g/ha [1, 4] | pest or weed control at 140 g/ha [1, 9] | pest or weed control at 70 g/ha [2, 16] | pest or weed control at 70 g/ha [2, 17]

C=Cc1c(-c2cc(N)c(Cl)c(C(=O)OC)n2)ccc(Cl)c1F [Compound 79, methyl 4-amino-3-chloro-6-(4-chloro-3-fluoro-2-vinylphenyl)picolinate]
85 to 94%: pest or weed control at 70 g/ha [2, 16] | pest or weed control at 140 g/ha [2, 16]
95 to 100%: pest or weed control at 70 g/ha [1, 3] | pest or weed control at 140 g/ha [1, 3] | pest or weed control at 70 g/ha [2, 11] | pest or weed control at 70 g/ha [2, 12] | pest or weed control at 140 g/ha [2, 12] | pest or weed control at 70 g/ha [2, 13] | pest or weed control at 140 g/ha [2, 13] | pest or weed control at 70 g/ha [2, 14] | pest or weed control at 140 g/ha [2, 14]
0 to 29%: pest or weed control at 70 g/ha [1, 4] | pest or weed control at 140 g/ha [1, 4] | pest or weed control at 70 g/ha [1, 5] | pest or weed control at 140 g/ha [1, 5] | pest or weed control at 70 g/ha [1, 6] | pest or weed control at 140 g/ha [1, 6] | pest or weed control at 70 g/ha [1, 7] | pest or weed control at 140 g/ha [1, 7] | pest or weed control at 70 g/ha [1, 8] | pest or weed control at 70 g/ha [1, 9] | pest or weed control at 140 g/ha [1, 9] | pest or weed control at 70 g/ha [1, 10] | pest or weed control at 140 g/ha [1, 10] | pest or weed control at 140 g/ha [2, 11] | pest or weed control at 70 g/ha [2, 15] | pest or weed control at 140 g/ha [2, 15] | pest or weed control at 70 g/ha [2, 17] | pest or weed control at 140 g/ha [2, 17]
30 to 44%: pest or weed control at 140 g/ha [1, 8]

Nc1cc(-c2ccc(Cl)c(F)c2CF)nc(C(=O)O)c1Cl [Compound 80, 4-Amino-3-chloro-6-(4-chloro-3-fluoro-2-(fluoromethyl)phenyl)picolinic acid]
75 to 84%: pest or weed control at 70 g/ha [2, 11] | pest or weed control at 140 g/ha [2, 11]
95 to 100%: pest or weed control at 70 g/ha [2, 12] | pest or weed control at 140 g/ha [2, 12] | pest or weed control at 70 g/ha [2, 13] | pest or weed control at 140 g/ha [2, 13] | pest or weed control at 70 g/ha [2, 14] | pest or weed control at 140 g/ha [2, 14]
85 to 94%: pest or weed control at 70 g/ha [2, 16] | pest or weed control at 140 g/ha [2, 16]
0 to 29%: pest or weed control at 70 g/ha [1, 3] | pest or weed control at 140 g/ha [1, 3] | pest or weed control at 70 g/ha [1, 4] | pest or weed control at 140 g/ha [1, 4] | pest or weed control at 70 g/ha [1, 5] | pest or weed control at 140 g/ha [1, 5] | pest or weed control at 70 g/ha [1, 6] | pest or weed control at 140 g/ha [1, 6] | pest or weed control at 70 g/ha [1, 7] | pest or weed control at 140 g/ha [1, 7] | pest or weed control at 70 g/ha [1, 8] | pest or weed control at 140 g/ha [1, 8] | pest or weed control at 70 g/ha [1, 9] | pest or weed control at 140 g/ha [1, 9] | pest or weed control at 70 g/ha [1, 10] | pest or weed control at 140 g/ha [1, 10] | pest or weed control at 70 g/ha [2, 15] | pest or weed control at 140 g/ha [2, 15] | pest or weed control at 70 g/ha [2, 17] | pest or weed control at 140 g/ha [2, 17]
